Data taken from article PMC10740061 (Food Chemistry: X, 2023).
Marks after values point to notes of the source that are not given here.

System: Caco-2 monolayer
Test: Caco-2 monolayer transmembrane transport, apical to basolateral
Assay type: in vitro ADME, human
Settings: for PappAtoB: 40 µM flavonoid, 6 h, A to B, mean ± SD (n = 3); for apparent permeability coefficient (in words): comparison among the dietary flavonoids, Table 2
[1] = RD (rice flour digested products) 400 µg/mL
[2] = WD (wheat flour digested products) 400 µg/mL

Oc1cc(O)c2c(c1)O[C@H](c1ccc(O)c(O)c1)[C@@H](O)C2 [(+)-Catechin]
PappAtoB (No substrate): 11.22 ± 0.06^a × 10^-6 cm/s | PappAtoB [1]: 18.75 ± 0.09^b × 10^-6 cm/s | Increase in PappAtoB (RD vs no substrate): 0.67 | Increase in PappAtoB (WD vs no substrate): −0.04 | apparent permeability coefficient (in words): notably higher apparent permeability coefficients

Oc1cc(O)c2c(c1)O[C@H](c1ccc(O)c(O)c1)[C@H](O)C2 [(-)-Epicatechin]
PappAtoB [1]: 37.30 ± 0.04^c × 10^-6 cm/s | Increase in PappAtoB (RD vs no substrate): 0.62 | PappAtoB [2]: 27.24 ± 0.45^b × 10^-6 cm/s | Increase in PappAtoB (WD vs no substrate): 0.18 | apparent permeability coefficient (in words): notably higher apparent permeability coefficients

O=c1cc(-c2ccc(O)cc2)oc2cc(O[C@@H]3O[C@H](CO)[C@@H](O)[C@H](O)[C@H]3O)cc(O)c12 [Apigenin-7-O-glucoside]
PappAtoB [1]: 6.37 ± 0.02^a × 10^-6 cm/s | Increase in PappAtoB (RD vs no substrate): 0.11 | PappAtoB [2]: 11.24 ± 0.64^b × 10^-6 cm/s | Increase in PappAtoB (WD vs no substrate): 0.95

O=c1cc(-c2ccc(O)cc2)oc2cc(O)cc(O)c12 [Apigenin]
PappAtoB [1]: 3.13 ± 0.01^b × 10^-6 cm/s | Increase in PappAtoB (RD vs no substrate): 0.90 | PappAtoB [2]: 4.18 ± 0.06^c × 10^-6 cm/s | Increase in PappAtoB (WD vs no substrate): 1.54 | apparent permeability coefficient (in words): comparatively poor

O=c1cc(-c2ccccc2)oc2cc(O)c(O)c(O)c12 [Baicalein]
PappAtoB [1]: 2.28 ± 0.01^a × 10^-6 cm/s | change of apparent permeability coefficient (in words) (RD group vs no substrate): decrease in the apparent permeability coefficient | Increase in PappAtoB (RD vs no substrate): −0.21 | PappAtoB [2]: 3.79 ± 0.10^c × 10^-6 cm/s | change of apparent permeability coefficient (in words) (WD group vs no substrate): increase | Increase in PappAtoB (WD vs no substrate): 0.31 | apparent permeability coefficient (in words): comparatively poor

OC[C@H]1O[C@@H](Oc2cc3c(O)cc(O)cc3[o+]c2-c2ccc(O)c(O)c2)[C@H](O)[C@@H](O)[C@@H]1O [Cyanidin-3-O-glucoside]
PappAtoB (No substrate): 7.96 ± 0.08^a × 10^-6 cm/s | PappAtoB [1]: 7.85 ± 0.07^a × 10^-6 cm/s | Increase in PappAtoB (RD vs no substrate): −0.01 | PappAtoB [2]: 7.97 ± 0.06^a × 10^-6 cm/s | Increase in PappAtoB (WD vs no substrate): 0.00

O=C1c2c(O)cc(O)cc2O[C@H](c2cc(O)c(O)c(O)c2)[C@H]1O [Dihydromyricetin]
PappAtoB [1]: 16.38 ± 0.03^b × 10^-6 cm/s | Increase in PappAtoB (RD vs no substrate): −0.05 | PappAtoB [2]: 14.82 ± 0.15^a × 10^-6 cm/s | Increase in PappAtoB (WD vs no substrate): −0.14 | apparent permeability coefficient (in words): notably higher apparent permeability coefficients

COc1ccc(-c2coc3cc(O)ccc3c2=O)cc1 [Formononetin]
PappAtoB [1]: 12.01 ± 0.01^a × 10^-6 cm/s | change of apparent permeability coefficient (in words) (RD group vs no substrate): decrease in permeability | Increase in PappAtoB (RD vs no substrate): −0.49 | PappAtoB [2]: 22.68 ± 0.95^b × 10^-6 cm/s | Increase in PappAtoB (WD vs no substrate): −0.05 | apparent permeability coefficient (in words): notably higher apparent permeability coefficients

O=c1c(O)c(-c2ccccc2)oc2cc(O)cc(O)c12 [Galangin]
PappAtoB [1]: 8.76 ± 0.01^b × 10^-6 cm/s | Increase in PappAtoB (RD vs no substrate): 0.28 | PappAtoB [2]: 12.01 ± 0.49^c × 10^-6 cm/s | Increase in PappAtoB (WD vs no substrate): 0.75

O=c1c(-c2ccc(O)cc2)coc2cc(O)cc(O)c12 [Genistein]
PappAtoB [1]: 14.45 ± 0.09^b × 10^-6 cm/s | Increase in PappAtoB (RD vs no substrate): 0.21 | PappAtoB [2]: 22.89 ± 0.09^c × 10^-6 cm/s | Increase in PappAtoB (WD vs no substrate): 0.92

COc1ccc([C@@H]2CC(=O)c3c(O)cc(O)cc3O2)cc1O [Hesperetin]
PappAtoB [1]: 1.98 ± 0.02^a × 10^-6 cm/s | change of apparent permeability coefficient (in words) (RD group vs no substrate): decrease in permeability | Increase in PappAtoB (RD vs no substrate): −0.73 | PappAtoB [2]: 12.18 ± 0.53^c × 10^-6 cm/s | Increase in PappAtoB (WD vs no substrate): 0.67

COc1cc(-c2oc3cc(O)cc(O)c3c(=O)c2O[C@@H]2O[C@H](CO[C@@H]3O[C@@H](C)[C@H](O)[C@@H](O)[C@H]3O)[C@@H](O)[C@H](O)[C@H]2O)ccc1O [Isorhamnetin-3-O-rutinoside]
PappAtoB (No substrate): 7.78 ± 0.05^b × 10^-6 cm/s | PappAtoB [1]: 5.40 ± 0.09^a × 10^-6 cm/s | Increase in PappAtoB (RD vs no substrate): −0.31 | PappAtoB [2]: 11.68 ± 0.07^c × 10^-6 cm/s | Increase in PappAtoB (WD vs no substrate): 0.50

COc1cc(-c2oc3cc(O)cc(O)c3c(=O)c2O)ccc1O [Isorhamnetin]
PappAtoB [1]: 6.64 ± 0.03^a × 10^-6 cm/s | Increase in PappAtoB (RD vs no substrate): −0.29 | PappAtoB [2]: 11.42 ± 0.91^c × 10^-6 cm/s | Increase in PappAtoB (WD vs no substrate): 0.23

O=c1c(O)c(-c2ccc(O)cc2)oc2cc(O[C@@H]3O[C@H](CO)[C@@H](O)[C@H](O)[C@H]3O)cc(O)c12 [Kaempferol-7-O-β-glucoside]
PappAtoB (No substrate): 0.64 ± 0.05^a × 10^-6 cm/s | PappAtoB [1]: 1.26 ± 0.02^b × 10^-6 cm/s | Increase in PappAtoB (RD vs no substrate): 0.96 | PappAtoB [2]: 3.67 ± 0.15^c × 10^-6 cm/s | Increase in PappAtoB (WD vs no substrate): 4.71 | apparent permeability coefficient (in words): comparatively poor

O=c1c(O)c(-c2cc(O)c(O)c(O)c2)oc2cc(O)cc(O)c12 [Myricetin]
PappAtoB [1]: 9.07 ± 0.01^b × 10^-6 cm/s | Increase in PappAtoB (RD vs no substrate): 0.63 | PappAtoB [2]: 17.79 ± 0.03^c × 10^-6 cm/s | Increase in PappAtoB (WD vs no substrate): 2.21

O=C1C[C@@H](c2ccc(O)cc2)Oc2cc(O)cc(O)c21 [Naringenin]
PappAtoB [1]: 5.43 ± 0.06^a × 10^-6 cm/s | Increase in PappAtoB (RD vs no substrate): −0.57 | PappAtoB [2]: 11.15 ± 1.54^b × 10^-6 cm/s | Increase in PappAtoB (WD vs no substrate): −0.12 | apparent permeability coefficient (in words): notably higher apparent permeability coefficients

C[C@@H]1O[C@@H](O[C@H]2[C@H](Oc3cc(O)c4c(c3)O[C@H](c3ccc(O)cc3)CC4=O)O[C@H](CO)[C@@H](O)[C@@H]2O)[C@H](O)[C@H](O)[C@H]1O [Naringin]
PappAtoB [1]: 1.80 ± 0.01^b × 10^-6 cm/s | Increase in PappAtoB (RD vs no substrate): 0.34 | PappAtoB [2]: 2.38 ± 0.09^c × 10^-6 cm/s | Increase in PappAtoB (WD vs no substrate): 0.77

O=c1c(O)c(-c2ccc(O)c(O)c2)oc2cc(O)cc(O)c12 [Quercetin]
PappAtoB [1]: 6.54 ± 0.03^a × 10^-6 cm/s | Increase in PappAtoB (RD vs no substrate): −0.29 | Increase in PappAtoB (WD vs no substrate): 0.18

C[C@@H]1O[C@@H](Oc2c(-c3ccc(O)c(O)c3)oc3cc(O)cc(O)c3c2=O)[C@H](O)[C@H](O)[C@H]1O [Quercitrin]
PappAtoB [1]: 1.47 ± 0.05^a × 10^-6 cm/s | Increase in PappAtoB (RD vs no substrate): −0.73 | PappAtoB [2]: 9.61 ± 0.28^c × 10^-6 cm/s | Increase in PappAtoB (WD vs no substrate): 0.72

O=C1c2c(O)cc(O)cc2OC(c2ccc(O)c(O)c2)C1O (stereo not shown) [Taxifolin]
PappAtoB [1]: 15.66 ± 0.09^a × 10^-6 cm/s | Increase in PappAtoB (RD vs no substrate): −0.37 | PappAtoB [2]: 17.71 ± 0.43^b × 10^-6 cm/s | Increase in PappAtoB (WD vs no substrate): −0.29 | apparent permeability coefficient (in words): notably higher apparent permeability coefficients

O=c1cc(-c2ccc(O)cc2)oc2c([C@@H]3O[C@H](CO)[C@@H](O)[C@H](O)[C@H]3O)c(O)cc(O)c12 [Vitexin]
PappAtoB [1]: 25.87 ± 0.04^b × 10^-6 cm/s | Increase in PappAtoB (RD vs no substrate): −0.09 | PappAtoB [2]: 15.54 ± 0.46^a × 10^-6 cm/s | Increase in PappAtoB (WD vs no substrate): −0.46 | apparent permeability coefficient (in words): highest apparent permeability coefficient
